Results reported in US20180344756A1, “METHODS FOR THE TREATMENT AND PREVENTION OF RENAL DISORDERS AND FATTY LIVER DISORDERS” (Janssen Pharmaceutica NV, priority 2014, published 2018).

Assays:
[1] = Albumin/creatinine ratio in the CANVAS clinical trial, subjects with micro- or macroalbuminuria; assay type: in vivo, human; conditions: for median percent change from baseline in ACR at Week 52: subjects with macroalbuminuria, Week 52, 82% of subjects on ACEIs or ARBs at baseline, placebo −3.6%
Method: (§1) The albumin/creatinine ratio was measured at baseline, over 12 weeks, over 52 weeks, and over 104 weeks, in subjects participating in the CANagliflozin cardioVascular Assessment Study (CANVAS), the DIA3004 clinical trial, and the DIA3009 clinical trial, respectively. (Complete protocol details for the CANVAS, DIA3004 and DIA3009 clinical trials are available on www.clinicaltrials.gov).
In subjects with macroalbuminuria in CANVAS, the median percent change from baseline in ACR at Week 52 was −3.6% in the placebo group, −58.6% in the canagliflozin 100 mg group, and −53.3% in the canagliflozin 300 mg group.

[2] = Albuminuria in the DIA3004 clinical trial, subjects with moderate renal impairment; assay type: in vivo, human; conditions: 52-week study, placebo 19.7%
Method: as §1

[3] = eGFR change from baseline over time in the CANVAS, DIA3004 and DIA3009 clinical trials; assay type: in vivo, human; conditions: maximal at first post baseline visit, stable or attenuated with continued treatment; CANVAS and DIA3004 52 weeks, DIA3009 104 weeks; FIG. 3-5
Excerpt: The time course of eGFR changes over 52 weeks in the CANVAS clinical trial is shown in FIG. 3; over a 52-week study in subjects with moderate renal impairment (in the DIA3004 clinical trial) are shown in FIG. 4; and over a 104-week period in an active comparator study (DIA3009, add-on to metformin) are shown in FIG. 5.

[4] = metformin on its own, in the diabetic; cited from earlier work

Row | SMILES | median percent change from baseline in ACR at Week 52 ([1]; canagliflozin 100 mg) [%] | median percent change from baseline in ACR at Week 52 ([1]; canagliflozin 300 mg) [%] | albuminuria after 52 weeks of treatment (in words) ([1]; subjects with micro- and macroalbuminuria at baseline, FIG. 1 and FIG. 2) | median percent reductions in albuminuria ([2]; baseline eGFR 30 to <50 ml/min/1.73 m^2, canagliflozin 100 mg) [%] | median percent reductions in albuminuria ([2]; baseline eGFR 30 to <50 ml/min/1.73 m^2, canagliflozin 300 mg) [%] | effect on eGFR (in words) [3] | average improvement in the HbA1c value [4]
1 | Cc1ccc([C@@H]2O[C@H](CO)[C@@H](O)[C@H](O)[C@H]2O)cc1Cc1ccc(-c2ccc(F)cc2)s1 [canagliflozin] | −58.6 | −53.3 | reductions in albuminuria | −16.4 | −28.0 | dose-dependent, reversible reduction in eGFR | –
2 | CN(C)C(=N)N=C(N)N [metformin] | – | – | – | – | – | – | 1.0-1.5%
